Data as given in PubChem BioAssay (NCI).
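Compound exposure: 48 hours, 5 concentrations, 96-well plates. The concentration for 50% growth inhibition is given as GI50. At the TGI there is no net growth.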

Key:
Assay in all cases: DTP human tumour cell line panel, 48 h
786-0 renal = test system: 786-0 renal
A498 renal = test system: A498 renal
A549 NSCLC = test system: A549 NSCLC
BT-549 breast = test system: BT-549 breast
CCRF-CEM leukemia = test system: CCRF-CEM leukemia
COLO 205 colon = test system: COLO 205 colon
DU-145 prostate = test system: DU-145 prostate
EKVX NSCLC = test system: EKVX NSCLC
HCC-2998 colon = test system: HCC-2998 colon
HCT-116 colon = test system: HCT-116 colon
HCT-15 colon = test system: HCT-15 colon
HL-60(TB) leukemia = test system: HL-60(TB) leukemia
HOP-62 NSCLC = test system: HOP-62 NSCLC
HOP-92 NSCLC = test system: HOP-92 NSCLC
HS 578T breast = test system: HS 578T breast
HT29 colon = test system: HT29 colon
IGROV1 ovarian = test system: IGROV1 ovarian
K-562 leukemia = test system: K-562 leukemia
KM12 colon = test system: KM12 colon
LOX IMVI melanoma = test system: LOX IMVI melanoma
MCF7 breast = test system: MCF7 breast
MDA-MB-231 breast = test system: MDA-MB-231 breast
MOLT-4 leukemia = test system: MOLT-4 leukemia
NCI-H226 lung = test system: NCI-H226 lung
NCI-H23 lung = test system: NCI-H23 lung
NCI-H460 lung = test system: NCI-H460 lung
NCI-H522 lung = test system: NCI-H522 lung
NCI/ADR-RES ovarian = test system: NCI/ADR-RES ovarian
OVCAR-3 ovarian = test system: OVCAR-3 ovarian
OVCAR-4 ovarian = test system: OVCAR-4 ovarian
OVCAR-5 ovarian = test system: OVCAR-5 ovarian
OVCAR-8 ovarian = test system: OVCAR-8 ovarian
PC-3 prostate = test system: PC-3 prostate
RPMI-8226 leukemia = test system: RPMI-8226 leukemia
SF-268 CNS = test system: SF-268 CNS
SF-295 CNS = test system: SF-295 CNS
SF-539 CNS = test system: SF-539 CNS
SK-MEL-2 melanoma = test system: SK-MEL-2 melanoma
SK-MEL-5 melanoma = test system: SK-MEL-5 melanoma
SK-OV-3 ovarian = test system: SK-OV-3 ovarian
SN12C renal = test system: SN12C renal
SNB-19 CNS = test system: SNB-19 CNS
SR leukemia = test system: SR leukemia
SW-620 colon = test system: SW-620 colon
TK-10 renal = test system: TK-10 renal
U251 CNS = test system: U251 CNS
UACC-257 melanoma = test system: UACC-257 melanoma
UACC-62 melanoma = test system: UACC-62 melanoma
UO-31 renal = test system: UO-31 renal

## CCOC(=O)[C@@H](C)C[C@H](Cc1ccccc1)NC(=O)c1csc([C@@H](C[C@H](C(C)C)N(C)C(=O)[C@H](CCC(C)C)NC(=O)[C@H]2CCCCN2C)OC(C)=O)n1
786-0 renal
  GI50: 13.5 nM
  TGI: 5530 nM
A498 renal
  GI50: 4.19 nM
  TGI: 22.6 nM
A549 NSCLC
  GI50: 14.5 nM
  TGI: > 33300 nM
BT-549 breast
  GI50: 11.9 nM
  TGI: 195 nM
CCRF-CEM leukemia
  GI50: 6 nM
  TGI: 4350 nM
COLO 205 colon
  GI50: 4.39 nM
  TGI: 35.2 nM
DU-145 prostate
  GI50: 8.92 nM
  TGI: 26200 nM
EKVX NSCLC
  GI50: 15.3 nM
  TGI: > 33300 nM
HCC-2998 colon
  GI50: < 3.33 nM
  TGI: 4280 nM
HCT-116 colon
  GI50: 4.24 nM
  TGI: 8170 nM
HCT-15 colon
  GI50: 13.8 nM
  TGI: 4190 nM
HL-60(TB) leukemia
  GI50: < 3.33 nM
  TGI: 10.4 nM
HOP-62 NSCLC
  GI50: 9.32 nM
  TGI: 5680 nM
HOP-92 NSCLC
  GI50: 658 nM
  TGI: 23300 nM
HS 578T breast
  GI50: 9.22 nM
  TGI: 3540 nM
HT29 colon
  GI50: < 3.33 nM
  TGI: 81.1 nM
IGROV1 ovarian
  GI50: 3.35 nM
  TGI: 29800 nM
K-562 leukemia
  GI50: < 3.33 nM
  TGI: 4450 nM
KM12 colon
  GI50: < 3.33 nM
  TGI: 4810 nM
LOX IMVI melanoma
  GI50: 13.3 nM
  TGI: 4850 nM
MCF7 breast
  GI50: < 3.33 nM
  TGI: 6300 nM
MDA-MB-231 breast
  GI50: 8.21 nM
  TGI: 398 nM
MOLT-4 leukemia
  GI50: 16.7 nM
  TGI: 5100 nM
NCI-H226 lung
  GI50: 49.5 nM
  TGI: 11600 nM
NCI-H23 lung
  GI50: 12.9 nM
  TGI: > 33300 nM
NCI-H460 lung
  GI50: 4.07 nM
  TGI: 3780 nM
NCI-H522 lung
  GI50: < 3.33 nM
  TGI: 7.08 nM
NCI/ADR-RES ovarian
  GI50: 143 nM
  TGI: 24000 nM
OVCAR-3 ovarian
  GI50: < 3.33 nM
  TGI: 33.5 nM
OVCAR-4 ovarian
  GI50: 497 nM
  TGI: > 33300 nM
OVCAR-5 ovarian
  GI50: 11.5 nM
  TGI: 10300 nM
OVCAR-8 ovarian
  GI50: 12.5 nM
  TGI: 10100 nM
PC-3 prostate
  GI50: < 3.33 nM
  TGI: 7150 nM
RPMI-8226 leukemia
  GI50: < 3.33 nM
  TGI: 3830 nM
SF-268 CNS
  GI50: 20.5 nM
  TGI: 5870 nM
SF-295 CNS
  GI50: 5.75 nM
  TGI: 3680 nM
SF-539 CNS
  GI50: 8.38 nM
  TGI: 28.9 nM
SK-MEL-2 melanoma
  GI50: < 3.33 nM
  TGI: 6650 nM
SK-MEL-5 melanoma
  GI50: < 3.33 nM
  TGI: 92.7 nM
SK-OV-3 ovarian
  GI50: 9.29 nM
  TGI: 9260 nM
SN12C renal
  GI50: 15.9 nM
  TGI: 4590 nM
SNB-19 CNS
  GI50: < 3.33 nM
  TGI: 10700 nM
SR leukemia
  GI50: < 3.33 nM
  TGI: 3770 nM
SW-620 colon
  GI50: < 3.33 nM
  TGI: 7140 nM
TK-10 renal
  GI50: 4120 nM
  TGI: > 33300 nM
U251 CNS
  GI50: 7.58 nM
  TGI: 5920 nM
UACC-257 melanoma
  GI50: 4240 nM
  TGI: 10300 nM
UACC-62 melanoma
  GI50: < 3.33 nM
  TGI: 6920 nM
UO-31 renal
  GI50: 22.7 nM
  TGI: 5140 nM
